This is an account of results in patent US20260207563A1, “UREA COMPOUNDS AS ACTIVATORS OF POTASSIUM CHANNELS KV7.2/7.3 USEFUL IN THE TREATMENT OF CNS AND PNS DISORDERS” (ANGELINI PHARMA S.P.A., priority 2022, published 2026).

Format in all cases: cell-based
Test [1] concerns the target T1, homomeric KV7.4 channel (KCNQ4) (Homo sapiens, UniProt P56696).
T1 construct: host or cells: CHO-K1
Nature of the test: Automated patch-clamp (Qube) counter-screening assay against KV7.4 channel. Conditions: CHO-K1 cells expressing KV7.4; class by maximal shift in the Vhalf at 30 μM. In a few lines: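 EC50 and maximal shift in half-activation voltage come from 4-parameter logistic fits of mean Vhalf shifts. The series had ten 1-in-3 concentrations, highest 30 μM, each tested in quadruplicate. Recordings used automated Qube patch clamp on a stable CHO-K1 line expressing KCNQ4, and selectivity was judged from the 30 μM Vhalf shift.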
For orientation: In patch-clamp work, channel activity is measured electrically.

The target in test [2] is T2, heteromeric KV7.2/KV7.3 channels (KCNQ2, KCNQ3) (Homo sapiens, UniProt O43525+O43526).
T2 construct: expressed in transfected cells; host or cells: CHO-K1
In words: Automated patch-clamp (Sophion Qube 384) potency assay against KV7.2/KV7.3 channels. Particulars: CHO-K1/Kv7.2/Kv7.3 cells; for EC50: EC50 from concentration-response of shift in Vhalf, 10 concentrations up to 30 μM, read-out: Kv7.2/7.3 EC50; for Kv7.2/7.3 ΔV1/2: maximal shift in the Vhalf from the top of the curve. In a few lines: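 Activator potency: EC50 from 4-parameter logistic fit of mean Vhalf shift across ten 1-in-3 dilutions starting at 30 μM (n=4), with DMSO (typically 0.3%) control. Currents recorded by leak-subtracted whole-cell clamp of stable CHO-K1 KV7.2/KV7.3 cells, held at −80 mV, stepped −100 to +20 mV then 0 mV tails.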

Test [3] has as its target T3, heteromeric KV7.3/KV7.5 channel (KCNQ3, KCNQ5) (Homo sapiens, UniProt O43525+Q9NR82).
T3 construct: host or cells: HEK293
In words: Automated patch-clamp counter-screening against KV7.3/KV7.5 channel. Particulars: HEK293 cells expressing Kv7.3/KV7.5; class by maximal shift in the Vhalf at 30 μM. In a few lines:
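Potency came from a 4-parameter logistic fit of mean voltage-of-half-activation shifts, yielding EC50 and maximal shift; selectivity was judged on the shift at 30 μM. Compounds were applied at ten 3-fold dilutions from 30 μM in quadruplicate to HEK293 cells stably carrying Kv7.3 with tet-inducible Kv7.5.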

On to `CN(CC(F)(F)F)c1cc(CNC(=O)NCCC2(C(F)(F)F)CC2)ccn1` [Compound 68, 1-((2-(Methyl(2,2,2-trifluoroethyl)amino)pyridin-4-yl)methyl)-3-(2-(1-(trifluoromethyl)cyclopropyl)ethyl)urea], for which the Kv7.4 selectivity criteria result in test [1] was “A (Selective compounds showed Kv7.4 and/or Kv7.3/7.5 ΔV1/2 equal to or lower than 15 mV (letter A in table 3))”. Further, in test [2], the EC50 stood at 4.73 µM and the “Kv7.2/7.3 ΔV1/2” value worked out at 27.19 mV. Further, in test [3], the Kv7.3/7.5 selectivity criteria result is given as “A (Selective compounds showed Kv7.4 and/or Kv7.3/7.5 ΔV1/2 equal to or lower than 15 mV (letter A in table 3))”.

Turning to `O=C(NCc1ccnc(OCC(F)(F)F)c1)NC1CCc2ccc(F)cc21` (racemic) [Compound 81, (±)-1-(6-Fluoro-2,3-dihydro-1H-inden-1-yl)-3-((2-(2,2,2-trifluoroethoxy)pyridin-4-yl)methyl)urea], in test [1], the Kv7.4 selectivity criteria result was “A (Selective compounds showed Kv7.4 and/or Kv7.3/7.5 ΔV1/2 equal to or lower than 15 mV (letter A in table 3))”. In addition, in test [2], the EC50 turned out to be 0.31 µM and the “Kv7.2/7.3 ΔV1/2” value was 14.75 mV. In test [3], the Kv7.3/7.5 selectivity criteria entry is “A (Selective compounds showed Kv7.4 and/or Kv7.3/7.5 ΔV1/2 equal to or lower than 15 mV (letter A in table 3))”.

`O=C(NCCC1(C(F)(F)F)CC1)NCc1ccc(OCC(F)(F)F)nc1` [Compound 80, 1-((6-(2,2,2-Trifluoroethoxy)pyridin-3-yl)methyl)-3-(2-(1-(trifluoromethyl)cyclopropyl)ethyl)urea]: in test [1], the Kv7.4 selectivity criteria entry is “B (Non-selective compounds showed Kv7.4 and/or Kv7.3/7.5 ΔV1/2 higher than 15 mV (letter B in table 3))”. For the same compound, in test [2], the EC50 is 3.9 µM and the “Kv7.2/7.3 ΔV1/2” value was 28.15 mV. Besides, in test [3], the Kv7.3/7.5 selectivity criteria result is “A (Selective compounds showed Kv7.4 and/or Kv7.3/7.5 ΔV1/2 equal to or lower than 15 mV (letter A in table 3))”.

As to `O=C(NCc1ccnc(OCC(F)(F)F)c1)N[C@H]1CCCOc2ccccc21` [Compound 142], in test [1], the Kv7.4 selectivity criteria result is “A (Selective compounds showed Kv7.4 and/or Kv7.3/7.5 ΔV1/2 equal to or lower than 15 mV (letter A in table 3))”. For the same compound, in test [2], the EC50 worked out at 0.657 µM and the “Kv7.2/7.3 ΔV1/2” value was 16.4 mV. In addition, in test [3], the Kv7.3/7.5 selectivity criteria result was “A (Selective compounds showed Kv7.4 and/or Kv7.3/7.5 ΔV1/2 equal to or lower than 15 mV (letter A in table 3))”.

As to `O=C(NCc1ccnc(OCC(F)(F)F)c1)N[C@H]1CCOc2ccccc21` [Compound 132], in test [1], the Kv7.4 selectivity criteria entry was “A (Selective compounds showed Kv7.4 and/or Kv7.3/7.5 ΔV1/2 equal to or lower than 15 mV (letter A in table 3))”. In test [2], the EC50 was found to be 3.24 µM and the “Kv7.2/7.3 ΔV1/2” value was 19.47 mV. Besides, the Kv7.3/7.5 selectivity criteria result in test [3] is “A (Selective compounds showed Kv7.4 and/or Kv7.3/7.5 ΔV1/2 equal to or lower than 15 mV (letter A in table 3))”.

With `CN(Cc1ccnc(OCC(F)(F)F)c1)C(=O)NCCC1(C(F)(F)F)CC1` [Compound 7, 1-Methyl-1-((2-(2,2,2-trifluoroethoxy)pyridin-4-yl)methyl)-3-(2-(1-(trifluoromethyl)cyclopropyl)ethyl)urea], in test [1], the Kv7.4 selectivity criteria entry is recorded as “A (Selective compounds showed Kv7.4 and/or Kv7.3/7.5 ΔV1/2 equal to or lower than 15 mV (letter A in table 3))”. For the same compound, in test [2], the EC50 turned out to be 5.13 µM and the “Kv7.2/7.3 ΔV1/2” value is 22.31 mV. Besides, the Kv7.3/7.5 selectivity criteria entry in test [3] was “A (Selective compounds showed Kv7.4 and/or Kv7.3/7.5 ΔV1/2 equal to or lower than 15 mV (letter A in table 3))”.

Consider `O=C(NCCC1(C(F)(F)F)CC1)NCc1ccnc(N2CC(C(F)(F)F)C2)c1` [Compound 44, 1-((2-(3-(Trifluoromethyl)azetidin-1-yl)pyridin-4-yl)methyl)-3-(2-(1-(trifluoromethyl)cyclopropyl)ethyl)urea], for which the Kv7.4 selectivity criteria entry in test [1] was “A (Selective compounds showed Kv7.4 and/or Kv7.3/7.5 ΔV1/2 equal to or lower than 15 mV (letter A in table 3))”. In addition, in test [2], the EC50 turned out to be 6.3 µM and the “Kv7.2/7.3 ΔV1/2” value is reported as 17.02 mV. Besides, the Kv7.3/7.5 selectivity criteria result in test [3] is “A (Selective compounds showed Kv7.4 and/or Kv7.3/7.5 ΔV1/2 equal to or lower than 15 mV (letter A in table 3))”.

Regarding `O=C(NCc1ccnc(OCC(F)(F)F)c1)NCc1ccccc1Cl` [Compound 75, 1-(2-Chlorobenzyl)-3-((2-(2,2,2-trifluoroethoxy)pyridin-4-yl)methyl)urea], the Kv7.4 selectivity criteria result in test [1] is “B (Non-selective compounds showed Kv7.4 and/or Kv7.3/7.5 ΔV1/2 higher than 15 mV (letter B in table 3))”. Further, in test [2], the EC50 came out at 0.508 µM and the “Kv7.2/7.3 ΔV1/2” value came to 25.35 mV. The Kv7.3/7.5 selectivity criteria result in test [3] is on record as “A (Selective compounds showed Kv7.4 and/or Kv7.3/7.5 ΔV1/2 equal to or lower than 15 mV (letter A in table 3))”.

As for `CC1Cc2cccc(NC(=O)NCc3ccnc(OCC(F)(F)F)c3)c2O1` (stereo not shown) [Compound 136], the Kv7.4 selectivity criteria result in test [1] is listed as “A (Selective compounds showed Kv7.4 and/or Kv7.3/7.5 ΔV1/2 equal to or lower than 15 mV (letter A in table 3))”. Besides, in test [2], the EC50 amounted to 0.565 µM and the “Kv7.2/7.3 ΔV1/2” value came to 16.11 mV. For the same compound, the Kv7.3/7.5 selectivity criteria result in test [3] is given as “A (Selective compounds showed Kv7.4 and/or Kv7.3/7.5 ΔV1/2 equal to or lower than 15 mV (letter A in table 3))”.

On to `O=C(NCCC1(C(F)(F)F)CC1)NCc1ccnc(OCCC(F)(F)F)c1` [Compound 74, 1-(2-(1-(Trifluoromethyl)cyclopropyl)ethyl)-3-((2-(3,3,3-trifluoropropoxy)pyridin-4-yl)methyl)urea], for which the Kv7.4 selectivity criteria entry in test [1] is listed as “A (Selective compounds showed Kv7.4 and/or Kv7.3/7.5 ΔV1/2 equal to or lower than 15 mV (letter A in table 3))”. Moreover, in test [2], the EC50 is 1.78 µM and the “Kv7.2/7.3 ΔV1/2” value is 26.68 mV. Also, the Kv7.3/7.5 selectivity criteria entry in test [3] is given as “A (Selective compounds showed Kv7.4 and/or Kv7.3/7.5 ΔV1/2 equal to or lower than 15 mV (letter A in table 3))”.

With `O=C(NCCC1(C(F)(F)F)CC1)NCc1ccnc(NCC(F)(F)F)c1` [Compound 16, 1-((2-((2,2,2-Trifluoroethyl)amino)pyridin-4-yl)methyl)-3-(2-(1-(trifluoromethyl)cyclopropyl)ethyl)urea], the Kv7.4 selectivity criteria entry in test [1] is “A (Selective compounds showed Kv7.4 and/or Kv7.3/7.5 ΔV1/2 equal to or lower than 15 mV (letter A in table 3))”. Also, in test [2], the EC50 was 6.23 µM and the “Kv7.2/7.3 ΔV1/2” value stood at 20.12 mV. Besides, in test [3], the Kv7.3/7.5 selectivity criteria entry is reported as “A (Selective compounds showed Kv7.4 and/or Kv7.3/7.5 ΔV1/2 equal to or lower than 15 mV (letter A in table 3))”.

Take `COCC1(NC(=O)NCc2ccnc(OCC(F)(F)F)c2)Cc2ccccc2C1` [Compound 148]: the Kv7.4 selectivity criteria entry in test [1] is reported as “A (Selective compounds showed Kv7.4 and/or Kv7.3/7.5 ΔV1/2 equal to or lower than 15 mV (letter A in table 3))”. In addition, in test [2], the EC50 amounted to 1.82 µM and the “Kv7.2/7.3 ΔV1/2” value was found to be 15.43 mV. The Kv7.3/7.5 selectivity criteria entry in test [3] was “A (Selective compounds showed Kv7.4 and/or Kv7.3/7.5 ΔV1/2 equal to or lower than 15 mV (letter A in table 3))”.

Take `O=C(NCc1ccnc(OCC(F)(F)F)c1)N[C@H]1CCc2c(Cl)cccc21` [Compound 143]: the Kv7.4 selectivity criteria entry in test [1] was “A (Selective compounds showed Kv7.4 and/or Kv7.3/7.5 ΔV1/2 equal to or lower than 15 mV (letter A in table 3))”. Further, in test [2], the EC50 is 3.97 µM and the “Kv7.2/7.3 ΔV1/2” value worked out at 22.37 mV. Besides, in test [3], the Kv7.3/7.5 selectivity criteria entry was “B (Non-selective compounds showed Kv7.4 and/or Kv7.3/7.5 ΔV1/2 higher than 15 mV (letter B in table 3))”.

Regarding `CC(NC(=O)NCCC1(C(F)(F)F)CC1)c1ccnc(OCC(F)(F)F)n1` (stereo not shown) [Compound 104], in test [1], the Kv7.4 selectivity criteria entry is reported as “A (Selective compounds showed Kv7.4 and/or Kv7.3/7.5 ΔV1/2 equal to or lower than 15 mV (letter A in table 3))”. Also, in test [2], the EC50 was found to be 3.09 µM and the “Kv7.2/7.3 ΔV1/2” value is given as 21.96 mV. In addition, in test [3], the Kv7.3/7.5 selectivity criteria entry is “A (Selective compounds showed Kv7.4 and/or Kv7.3/7.5 ΔV1/2 equal to or lower than 15 mV (letter A in table 3))”.

With `O=C(NCc1ccnc(OCC(F)(F)F)c1)N[C@H]1CCCc2ccccc21` [Compound 138], in test [1], the Kv7.4 selectivity criteria entry is “A (Selective compounds showed Kv7.4 and/or Kv7.3/7.5 ΔV1/2 equal to or lower than 15 mV (letter A in table 3))”. In test [2], the EC50 was found to be 0.195 µM and the “Kv7.2/7.3 ΔV1/2” value was found to be 17.98 mV. Moreover, the Kv7.3/7.5 selectivity criteria result in test [3] was “A (Selective compounds showed Kv7.4 and/or Kv7.3/7.5 ΔV1/2 equal to or lower than 15 mV (letter A in table 3))”.

Turning to `C[C@@H](NC(=O)NCCC1(C(F)(F)F)CC1)c1ccnc(OCC(F)(F)F)c1` [Compound 65, (R)-1-(1-(2-(2,2,2-Trifluoroethoxy)pyridin-4-yl)ethyl)-3-(2-(1-(trifluoromethyl)cyclopropyl)ethyl)urea], in test [1], the Kv7.4 selectivity criteria entry is on record as “A (Selective compounds showed Kv7.4 and/or Kv7.3/7.5 ΔV1/2 equal to or lower than 15 mV (letter A in table 3))”. In addition, in test [2], the EC50 was 0.152 µM and the “Kv7.2/7.3 ΔV1/2” value is listed as 26.28 mV. In addition, the Kv7.3/7.5 selectivity criteria entry in test [3] was “A (Selective compounds showed Kv7.4 and/or Kv7.3/7.5 ΔV1/2 equal to or lower than 15 mV (letter A in table 3))”.
